Assay results reported in patent US7196110B2, “N-substituted tricyclic 3-aminopyrazoles as inhibitors for the treatment of cell proliferative disorders” (Janssen Phamaceutica N.V., priority 2002, dated 2007).
Read-outs that look alike come from different tables or passages of the source.

How the values were obtained:
T47D (breast) = assay: Anti-cell proliferation in tumor cells (14C-thymidine incorporation), T47D; format: cell-based; conditions: Homo sapiens, read-out: IC50 on cell proliferation, T47D
Method: (§1) The effect of compounds of the invention on cell proliferation in various tumor cells was tested based on incorporation of ^14C-thymidine into DNA of cells.
(§2) Similar to those described above in 3a, except that different cells, cell growth medium, and growth supplements were used. Human tumor cell lines derived from various human tissue origins (LoVo from colon, H460 from lung, T47D from breast, PC3 from prostate, A375 from melanoma, AsPC1 from pancreas) were obtained from the American Type Culture Collection (ATCC) and cultured under specified conditions required for each cell type, as provided by ATCC. Complete medium was obtained from Cellgro: Iscove's medium with 10% Fetal Bovine Serium (FBS) (Mediatech, Inc., Herndon, Va. 20171, Cat. No. 10-016-CV).
(§3) Tumor cells were seeded at approx. 3000–8000 cells per well in a volume of 100 μl of complete medium. Cells were grown for 24 hours in complete medium, and 1 μl of test compound was serially diluted in 100% DMSO and added to each well. For maximum growth control wells, only 1 μl of 100% DMSO was added. After 24 hours incubation, 20 μl of ^14C-thymidine master mix was added to each well and the ^14C-thymidine master mix was pepared according to the following regimen:
(§4) Cells were incubated for an additional 24 hours at 37° C. in medium containing test compound and ^14C-thymidine. Then, the reaction mixture was discarded and the plate was washed 2 times each with 200 μl PBS. Subsequently, each well on the plate was filled with 200 μl of PBS. The top of the plate was sealed with transparent plate sealer and white plate backing sealers were applied to the bottom of plates. The retained ^14C inside each well was measured using a Packard TopCount.
(§5) In order to test the potency of inhibition of the present compound, IC50 of an individual compound on the inhibition of tumor cell line proliferation was measured using the above procedure. As used herein, said IC50 refers to the concentration of the test compound at which the amount of tumor cell proliferation is reduced by one-half as compared to the maximum growth control wells without the compound.

[1] = biological target: T1, PDGF-receptor beta enzyme comprising the tyrosine kinase domain (Homo sapiens, UniProt P09619); assay: Inhibition of PDGF-receptor kinase activity (cell-free, PLC1 peptide, 33P Flashplate); format: biochemical; conditions: for inhibition at 10 µM: compound at 10 uM, read-out: Percent Inhibition @ 10 uM
T1 construct: from amino acid 545 to 1106 of GenBank Access NO: AAA36427
T1 sequence (P09619 545-1106): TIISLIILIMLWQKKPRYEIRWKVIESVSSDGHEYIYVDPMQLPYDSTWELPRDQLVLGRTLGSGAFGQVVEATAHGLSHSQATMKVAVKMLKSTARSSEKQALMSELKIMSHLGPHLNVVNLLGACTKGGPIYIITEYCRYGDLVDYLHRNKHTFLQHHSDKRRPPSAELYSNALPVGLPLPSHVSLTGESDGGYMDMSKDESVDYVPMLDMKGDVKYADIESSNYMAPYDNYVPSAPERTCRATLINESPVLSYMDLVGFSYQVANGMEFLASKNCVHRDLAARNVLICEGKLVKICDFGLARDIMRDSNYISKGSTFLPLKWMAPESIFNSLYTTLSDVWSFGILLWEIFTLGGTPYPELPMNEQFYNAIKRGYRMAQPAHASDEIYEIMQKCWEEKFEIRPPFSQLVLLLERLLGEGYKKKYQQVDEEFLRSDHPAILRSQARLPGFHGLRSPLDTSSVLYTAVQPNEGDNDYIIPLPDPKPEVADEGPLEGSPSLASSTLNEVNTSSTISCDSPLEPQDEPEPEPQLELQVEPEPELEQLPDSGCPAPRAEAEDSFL
How it was run: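 The IC50 is the inhibitor level halving kinase activity relative to inhibitor-free wells, measured as 33P captured on a streptavidin-bound biotin-PLC1 peptide. The reaction ran 60 min at 30 °C in pH 8 Tris buffer with 1 mM DTT, 5 μM ATP and the 545–1106 kinase-domain enzyme.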

A375 (melanoma) = assay: Anti-cell proliferation in tumor cells (14C-thymidine incorporation), A375; format: cell-based; conditions: Homo sapiens, A-375; read-out: IC50 on cell proliferation, A375
Method: as §1, §2, §3, §4, §5

LoVo (colon) = assay: Anti-cell proliferation in tumor cells (14C-thymidine incorporation), LoVo; format: cell-based; conditions: Homo sapiens, read-out: IC50 on cell proliferation, LoVo
Method: as §1, §2, §3, §4, §5

PC3 (prostate) = assay: Anti-cell proliferation in tumor cells (14C-thymidine incorporation), PC3; format: cell-based; conditions: Homo sapiens, PC-3; read-out: IC50 on cell proliferation, PC3
Method: as §1, §2, §3, §4, §5

c-Abl kinase = c-Abl kinase (Abelson murine leukemia virus, UniProt P00521); assay: Inhibition of c-Abl kinase activity (cell-free, Abl peptide substrate, 33P Flashplate); format: biochemical; conditions: IC50 for the c-Abl kinase activity
c-Abl kinase, sequence (P00521 115-385): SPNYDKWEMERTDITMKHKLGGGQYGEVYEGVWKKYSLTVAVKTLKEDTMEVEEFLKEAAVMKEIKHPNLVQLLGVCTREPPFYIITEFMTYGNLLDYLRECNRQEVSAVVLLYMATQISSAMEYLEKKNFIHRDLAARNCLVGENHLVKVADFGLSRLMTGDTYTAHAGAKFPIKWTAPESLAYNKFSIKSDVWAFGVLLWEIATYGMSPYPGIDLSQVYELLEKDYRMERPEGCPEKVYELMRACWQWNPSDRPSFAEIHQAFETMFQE

AsPC1 (pancreas) = assay: Anti-cell proliferation in tumor cells (14C-thymidine incorporation), AsPC1; format: cell-based; conditions: Homo sapiens, ASPC1; read-out: IC50 on cell proliferation, AsPC1
Method: as §1, §2, §3, §4, §5

H460 (lung) = assay: Anti-cell proliferation in tumor cells (14C-thymidine incorporation), H460; format: cell-based; conditions: Homo sapiens, NCI-H460; read-out: IC50 on cell proliferation, H460
Method: as §1, §2, §3, §4, §5

[2] = Rat pharmacokinetics study of pro-drugs, conversion to parent monitored by HPLC/MS/MS; format: in vivo; conditions: po, rat plasma, 10 mg/kg orally, read-out: Fast PK (0.5 h) conc. Prodrug
Method: Furthermore, pro-drugs have been administered orally to rats (10 mg/kg) in pharmacokinetics studies, and the conversion of pro-drugs to the parent compound was montitored by HPLC/MS/MS analyses. Parent compound or the glucuronide conjugates of the parent compound was detected in the rat plasma from the pharmacokinetics studies (Table G).

[3] = PDGF-R kinase activity, read-out: IC50

concentration at 0.5 h [2]	IC50 ([1]; read-out: IC50 (μM) on PDGF-R kinase activity)	Compound	IC50 (T47D (breast))	inhibition at 10 µM ([1]; PDGF-R kinase activity)	IC50 (A375 (melanoma))	IC50 (LoVo (colon))	IC50 [1, 3]	IC50 (PC3 (prostate))	IC50 (c-Abl kinase)	IC50 (AsPC1 (pancreas))	IC50 (H460 (lung))
–	–	COc1cc2c(cc1OC)-c1n[nH]c(Nc3cccc(Cl)c3)c1C2 [Compound 4, (3-Chloro-phenyl)-(6,7-dimethoxy-2,4-dihydro-indeno[1,2-c]pyrazol-3-yl)-amine]	30 nM	90%	–	–	–	–	–	–	–
–	–	COc1cc2c(cc1OC)-c1c(c(Nc3cccc(Br)c3)nn1C)C2 [Compound 91, (3-Bromo-phenyl)-(6,7-dimethoxy-1-methyl-1,4-dihydro-indeno[1,2-c]pyrazol-3-yl)-amine]	–	76%	4 nM	71 nM	2.97 µM	–	–	–	–
–	–	CCOc1cccc(Nc2[nH]nc3c2Cc2cc(OCC)c(OCCCO)cc2-3)c1 [Compound 388, 3-[6-Ethoxy-3-(3-ethoxy-phenylamino)-2,4-dihydro-indeno[1,2-c]pyrazol-7-yloxy]-propan-1-ol]	3 nM	96%	2 nM	18 nM	0.0367 µM	4 nM	46 nM	155 nM	6 nM
–	–	CCC1c2cc(OC)c(OC)cc2-c2n[nH]c(Nc3cccc(Br)c3)c21 (stereo not shown) [Compound 420, (3-Bromo-phenyl)-(4-ethyl-6,7-dimethoxy-2,4-dihydro-indeno[1,2-c]pyrazol-3-yl)-amine]	822 nM	100%	214 nM	3800 nM	0.0524 µM	276 nM	335 nM	4300 nM	4100 nM
60 nM	–	COc1cc2c(cc1OC)-c1c(c(Nc3cccc(F)c3)nn1C(=O)Oc1ccccc1)C2 [Compound 433, 3-(3-Fluoro-phenylamino)-6,7-dimethoxy-4H-indeno[1,2-c]pyrazole-1-carboxylic acid phenyl ester]	–	71%	–	–	0.585 µM	–	–	–	–
–	–	CCOc1cc2c(cc1OCC(O)CN1CCCC1)-c1n[nH]c(Nc3cccnc3)c1C2 (stereo not shown) [Compound 461, 1-[6-Ethoxy-3-(pyridin-3-ylamino)-2,4-dihydro-indeno[1,2-c]pyrazol-7-yloxy]-3-pyrrolidin-1-yl-propan-2-ol]	–	97.5%	–	–	0.00755 µM	–	337 nM	–	–
–	–	CCOc1cccc(Nc2[nH]nc3c2Cc2cc(OCC)c(OCC(O)CN4CCCC4)cc2-3)c1 (stereo not shown) [Compound 463, 1-[6-Ethoxy-3-(3-ethoxy-phenylamino)-2,4-dihydro-indeno[1,2-c]pyrazol-7-yloxy]-3-pyrrolidin-1-yl-propan-2-ol]	–	98.5%	–	–	0.011 µM	–	8 nM	–	–
–	–	COc1cc2c(cc1OC)-c1c(c(Nc3cccc(F)c3)nn1C(=O)CCC(=O)O)C2 [Compound 466, 4-[3-(3-Fluoro-phenylamino)-6,7-dimethoxy-4H-indeno[1,2-c]pyrazol-1-yl]-4-oxo-butyric acid]	–	96%	–	–	0.0311 µM	–	191 nM	–	–
–	–	COc1cc2c(cc1OC)-c1c(c(Nc3cccc(F)c3)nn1C(=O)COC(C)=O)C2 [Compound 467, Acetic acid 2-[3-(3-fluoro-phenylamino)-6,7-dimethoxy-4H-indeno[1,2-c]pyrazol-1-yl]-2-oxo-ethyl ester]	–	96.5%	–	–	0.0176 µM	–	244 nM	–	–
–	–	OCC(O)COc1cccc2c1Cc1c-2n[nH]c1Nc1cccc(Br)c1 (stereo not shown) [Compound 468, 3-[3-(3-Bromo-phenylamino)-2,4-dihydro-indeno[1,2-c]pyrazol-5-yloxy]-propane-1,2-diol]	–	95.5%	–	–	0.0478 µM	–	603 nM	–	–
–	–	OCC(O)COc1cccc2c1Cc1c-2n[nH]c1Nc1cccc(F)c1 (stereo not shown) [Compound 469, 3-[3-(3-Fluoro-phenylamino)-2,4-dihydro-indeno[1,2-c]pyrazol-5-yloxy]-propane-1,2-diol]	–	96%	–	–	0.16 µM	–	27 nM	–	–
0 nM	–	COc1cc2c(cc1OC)-c1c(c(Nc3cccc(F)c3)nn1C(=O)OCCOCCOCCO)C2 [Compound 471, 3-(3-Fluoro-phenyl-amino)-6,7-dimethoxy-4H-indeno[1,2-c]pyrazole-1-carboxylic acid 2-[2-(2-hydroxy-ethoxy)-ethoxy]-ethyl ester]	–	90.5%	–	–	0.135 µM	–	–	–	–
–	–	CCCC(=O)OCn1nc(Nc2cccc(F)c2)c2c1-c1cc(OC)c(OC)cc1C2 [Compound 490, Butyric acid 3-(3-fluoro-phenylamino)-6,7-dimethoxy-4H-indeno[1,2-c]pyrazol-1-ylmethyl ester]	–	96%	–	–	0.0285 µM	–	38 nM	–	–
7800 nM	4.02 µM	CNC(=O)n1nc(Nc2cccc(F)c2)c2c1-c1cc(OC)c(OC)cc1C2 [Compound 578, 3-(3-Fluoro-phenylamino)-6,7-dimethoxy-4H-indeno[1,2-c]pyrazole-1-carboxylic acid methylamide]	–	80%	–	–	–	–	–	–	–

Compound	concentration at 0.5 h [2]	IC50 ([1]; read-out: IC50 (μM) on PDGF-R kinase activity)	IC50 (T47D (breast))	inhibition at 10 µM ([1]; PDGF-R kinase activity)	IC50 (A375 (melanoma))	IC50 (LoVo (colon))	IC50 [1, 3]	IC50 (PC3 (prostate))	IC50 (c-Abl kinase)	IC50 (AsPC1 (pancreas))	IC50 (H460 (lung))
COCC(=O)n1nc(Nc2cccc(F)c2)c2c1-c1cc(OC)c(OC)cc1C2 [Compound 465, 1-[3-(3-Fluoro-phenylamino)-6,7-dimethoxy-4H-indeno[1,2-c]pyrazol-1-yl]-2-methoxy-ethanone]	223 nM	–	–	96%	–	–	0.00673 µM	–	51 nM	–	–
